Where two headings read alike, the source gives them in different places.
Test system: C. elegans
[1] = Table S2, C. elegans SS assay, 110 μM, 0 h, averages of 4 data points
[2] = Table S2, C. elegans SS assay, 110 μM, 24 h, averages of 4 data points

| SMILES | Percentage of motility inhibition 0 h [1] | Percentage of motility inhibition 24 h [2] | Percentage of motility inhibition 0 h (110 µM) | Percentage of motility inhibition 24 h (110 µM) |
| --- | --- | --- | --- | --- |
| CO/N=C(\C(=O)N[C@@H]1C(=O)N2C(C(=O)OCOC(=O)C(C)(C)C)=C(/C=C\c3scnc3C)CS[C@H]12)c1csc(N)n1 [Cefditoren (Pivoxil)] | 36% | 1% | – | – |
| CO/N=C(\C(=O)N[C@@H]1C(=O)N2C(C(=O)O)=C(C[N+]3(C)CCCC3)CS[C@H]12)c1csc(N)n1.Cl.O.[Cl-] [Cefepime (Dihydrochloride Monohydrate)] | 7% | 1% | – | – |
| CO/N=C(\C(=O)N[C@@H]1C(=O)N2C(C(=O)OCOC(=O)C(C)(C)C)=C(C)CS[C@H]12)c1csc(N)n1.Cl [Cefetamet pivoxil (hydrochloride)] | 55% | 17% | – | – |
| CO/N=C(\C(=O)N[C@@H]1C(=O)N2C(C(=O)O)=C(CSc3nnnn3C)CS[C@H]12)c1csc(N)n1.CO/N=C(\C(=O)N[C@@H]1C(=O)N2C(C(=O)O)=C(CSc3nnnn3C)CS[C@H]12)c1csc(N)n1.Cl [Cefmenoxime (hydrochloride)] | 15% | 0% | – | – |
| CO[C@@]1(NC(=O)CSCC#N)C(=O)N2C(C(=O)[O-])=C(CSc3nnnn3C)CS[C@@H]21.[Na+] [Cefmetazole (sodium)] | 7% | 25% | – | – |
| O=C([O-])C1=C(CSc2nnnn2CS(=O)(=O)[O-])CS[C@@H]2[C@H](NC(=O)[C@H](O)c3ccccc3)C(=O)N12.[Na+].[Na+] [Cefonicid (sodium)] | 0% | 2% | – | – |
| CO/N=C(\C(=O)N[C@@H]1C(=O)N2C(C(=O)O)=C(Cn3ccc(=N)n3CCO)CS[C@H]12)c1csc(N)n1.O=S(=O)(O)O [Cefoselis (sulfate)] | 8% | 0% | – | – |
| CO/N=C(\C(=O)N[C@@H]1C(=O)N2C(C(=O)[O-])=C(COC(C)=O)CS[C@H]12)c1csc(N)n1.[Na+] [Cefotaxime (sodium salt)] | 30% | 34% | – | – |
| CN(C)CCn1nnnc1SCC1=C(C(=O)O)N2C(=O)[C@@H](NC(=O)Cc3csc(N)n3)[C@H]2SC1.Cl.Cl [Cefotiam (hydrochloride)] | 66% | 37% | – | – |
| CO[C@@]1(NC(=O)Cc2cccs2)C(=O)N2C(C(=O)[O-])=C(COC(N)=O)CS[C@@H]21.[Na+] [Cefoxitin (sodium)] | 0% | 0% | – | – |
| CO/N=C(\C(=O)N[C@@H]1C(=O)N2C(C(=O)[O-])=C(C[n+]3ccn4ncccc43)CS[C@H]12)c1nsc(N)n1.Cl [Cefozopran (hydrochloride)] | 10% | 12% | – | – |
| Cc1cc(O)c(C(=O)N[C@@H](C(=O)N[C@@H]2C(=O)N3C(C(=O)[O-])=C(CSc4nnnn4C)CS[C@H]23)c2ccc(O)cc2)cn1.[Na+] [Cefpiramide (sodium)] | 0% | 7% | – | – |
| CO/N=C(\C(=O)N[C@@H]1C(=O)N2C(C(=O)[O-])=C(C[n+]3cccc4c3CCC4)CS[C@H]12)c1csc(N)n1.O=S(=O)(O)O [Cefpirome (sulfate)] | 13% | 0% | – | – |
| C/C=C/C1=C(C(=O)O)N2C(=O)[C@@H](NC(=O)[C@H](N)c3ccc(O)cc3)[C@H]2SC1.O [Cefprozil (monohydrate)] | 12% | 14% | – | – |
| NC(=O)c1cc[n+](CC2=C(C(=O)[O-])N3C(=O)[C@@H](NC(=O)[C@@H](c4ccccc4)S(=O)(=O)[O-])[C@H]3SC2)cc1.[Na+] [Cefsulodin (sodium)] | 17% | 6% | – | – |
| Nc1nc(/C(=C/CC(=O)O)C(=O)N[C@@H]2C(=O)N3C(C(=O)O)=CCS[C@H]23)cs1.O.O [Ceftibuten (dihydrate)] | 19% | 5% | – | – |
| CO/N=C(\C(=O)N[C@@H]1C(=O)N2C(C(=O)[O-])=C(CSC(=O)c3ccco3)CS[C@H]12)c1csc(N)n1.[Na+] [Ceftiofur (sodium)] | 17% | 1% | – | – |
| CO/N=C(\C(=O)N[C@@H]1C(=O)N2C(C(=O)[O-])=CCS[C@H]12)c1csc(N)n1.[Na+] [Ceftizoxime (sodium)] | 0% | 3% | – | – |
| CO/N=C(\C(=O)N[C@@H]1C(=O)N2C(C(=O)[O-])=C(CSc3nc(=O)c([O-])nn3C)CS[C@H]12)c1csc(N)n1.CO/N=C(\C(=O)N[C@@H]1C(=O)N2C(C(=O)[O-])=C(CSc3nc(=O)c([O-])nn3C)CS[C@H]12)c1csc(N)n1.O.O.O.O.O.O.O.[Na+].[Na+].[Na+].[Na+] [Ceftriaxone (sodium salt)] | – | – | 25% | 16% |
| CO/N=C(\C(=O)N[C@@H]1C(=O)N2C(C(=O)[O-])=C(COC(N)=O)CS[C@H]12)c1ccco1.[Na+] [Cefuroxime (sodium)] | 19% | 17% | – | – |
